The structures appear in SMILES notation.

This assay concerns EntC1. Nature of the assay: ITC, EntC1. The format is binding. The conditions noted are these: titration of EntC2 with EntC1.

With `CC[C@H](C)[C@H](NC(=O)CNC(=O)[C@H](CCCCN)NC(=O)[C@H](C)NC(=O)[C@H](CC(C)C)NC(=O)CNC(=O)[C@H](C)NC(=O)[C@@H](NC(=O)[C@H](Cc1ccccc1)NC(=O)[C@H](CC(=O)O)NC(=O)[C@H](Cc1ccc(O)cc1)NC(=O)[C@H](C)NC(=O)[C@@H]1CCCN1C(=O)[C@H](CCC(N)=O)NC(=O)[C@H](CC(C)C)NC(=O)[C@H](Cc1c[nH]c2ccccc12)NC(=O)[C@@H]1CCCN1C(=O)[C@H](CC(C)C)NC(=O)[C@H](Cc1c[nH]c2ccccc12)NC(=O)[C@H](CCCCN)NC(=O)CNC(=O)[C@@H]1CCCN1C(=O)CN)C(C)C)C(=O)NCC(=O)N[C@@H](CCCCN)C(=O)N[C@@H](CCC(=O)O)C(=O)NCC(=O)N[C@@H](CC(N)=O)C(=O)N[C@@H](CCCCN)C(=O)N[C@@H](CC(N)=O)C(=O)N[C@@H](CCCCN)C(=O)N[C@@H](Cc1c[nH]c2ccccc12)C(=O)N[C@@H](CCCCN)C(=O)N[C@@H](CC(N)=O)C(=O)N[C@H](C(=O)O)C(C)C` (single isomer, unassigned) [EntC2], the “binding to EntC1 (ITC)” value is “No binding”.

Values taken from publication PMC12765074, “Mechanistic insights into enterocin C targeting the undecaprenyl phosphate recycling protein BacA” (The Journal of Biological Chemistry, 2025).
